Results: patent US10946098B2, “Activatable two-component photosensitizers” (Carnegie Mellon University, priority 2014, dated 2021)
Where two headings read alike, the source gives them in different places.

Columns and labels:
[1] = Absorbance of free fluorogens; assay type: physicochemical; settings: for x band abs max (nm) / y band abs max (nm) / λAbs (nm) (Fluorogen): free fluorogen; for ε (10^4 M^−1cm^−1): second value in parentheses not explained
[2] = test system: dL5; experiment: Fluorescence quantum yield using Cy5 as standard; assay type: physicochemical; settings: fluorescence quantum yield of FAP-fluorogen, PBS7.4
Experimental: (§1) FIGS. 7A-7C: FIG. 7A) KD measurement of MG-dL5 and MG2I-dL5, FIG. 7B) absorption spectra of 1 μM MG2I and MG2I with 5 μM dL5 (shorter wavelength absorption peak), FIG. 7C): fluorescence quantum yield measurement of MG2I-dL5 (squares) using Cy5 as standard (circles).
The 3, 5-diiodo-4-hydroxybenzaldehyde, anthracene-9, 10-dipropionic acid disodium salt ADPA, were purchased from VWR international and Sigma-Aldrich, tetrasulfonated aluminum phthalocyanine AlPcS4 from frontier scientific, PEG-catalase, PEG-SOD, hoechst dye 33342, live/dead cell viability/cytotoxicity kit L-3224 and dihydroethidium (hydroethidine) D11347 were from Molecular Probes. Basic media was from Invitrogen. H NMR and C NMR data are recorded from Bruker Avance™ 300 MHz and 500 MHz. Mass spectra are obtained from Thermo-Fisher LCQ ESI/APCI Ion Trap. Final products are purified by silica, neutral alumina and reverse-phase chromatography, purity were tested by UPLC. Raw absorbance values of respective free dyes and dye-FAP complex were measured on a PerkinElmer Lambda45 spectrophotometer. Fluorogenic enhancement was measured in 96 well microplates on a Tecan Safire2 reader. Quantum yields were determined by comparing integrated spectra of MG2I-dL5 complexes with Cy5 in PBS7.4 on a Quantamaster monochromator fluorimeter (Photon Technology International).

[3] = biological target: dL5; experiment: KD measurement of fluorogen-dL5; settings: fluorogen binding to dL5
Experimental: as §1
The iodination effect produces a 22 nm bathochromic shift of the x band of free MG while maintaining the FAP-fluorogen interactions. The iodination also renders the excitation maximum of MG2I-dL5 to 666 nm (compare to MG-dL5 at 633 nm), into the near infrared range (Table 1). FIGS. 7A-7C depict (FIG. 7A) KD measurement of MG-dL5 and MG2I-dL5, (FIG. 7B) absorption spectra of 1 μM MG2I and MG2I with 5 μM dL5 (shorter wavelength absorption peak), and (FIG. 7C) fluorescence quantum yield measurement of MG2I-dL5 (squares) using Cy5 as standard (circles).

[4] = test system: cardiac function of zebrafish larvae; experiment: Photo-ablation of cardiac function of larval zebrafish; assay type: in vivo; settings: 500 nM fluorogen 3 hours
Source text: MG2I-FAP induced photo-ablation of cardiac function of transgenic zebrafish. […] In both control groups, development proceeded normally. Scale Bar=1000 μm and applied to all images.
First, transgenic zebrafish lines were produced that expressed a cytoplasmic FAP-mCerulean3 (FAP-mCer3) tandem protein under control of the heart-specific myosin light chain 7 (my17, also known as cmlc2) promoter, Tg(my17: FAP-mCer3). […] FIG. 19 are photomicrographs of zebrafish larvae as described above. White denotes the presence of cytoplasmic FAP-mCerulean3 in live cells.

[5] = Singlet oxygen quantum yield by ADPA bleaching, AlPcS4 standard; assay type: physicochemical; settings: singlet oxygen quantum yield of FAP-fluorogen
Experimental: Determination of singlet oxygen quantum yield: PBS 7.4 solution contains 0.1 mM ADPA and optically matched samples are illuminated from a 660 nm LED source, at different time point, its fluorescence decrease at 374/402 nm was recorded, the data was then fitted into a linear plot, the ψΔ was then calculated from the slopes using the equation below.
To test the two-component FAP photosensitizer ability to generate singlet oxygen, anthracene-9, 10-dipropionic acid (ADPA), a commonly used singlet oxygen scavenger, was used. This was done by monitoring the fluorescence disappearance of ADPA at 374/402 nm. Aluminum phthalocyanine tetrasulfonate (AlPcS4) was used as the standard for the measurement of ^1O2 generation (ψΔ=0.34). Optically matched solutions of MG2I-dL5 and AlPcS4 at 660 nm are compared and the singlet oxygen quantum yield of the two-component FAP photosensitizer is estimated to be 0.13 (FIG. 8). […] This confirmed the specific generation of singlet oxygen from the complex. Importantly, both the fluorescent quantum yield and the singlet oxygen quantum yield of free dyes are not detectable under normal excitation conditions, due to the very short excited state lifetime (<1 […]). […] Moreover, with near infrared excitation, this genetically encoded complex is accessible for a range of tumors and can also be used as tool for tumor visualization with fair fluorescence.

[6] = test system: dL5; experiment: Fluorescence excitation/emission of fluorogen bound to dL5; assay type: physicochemical; settings: for λem (nm) / λex (nm): FAP-fluorogen complex; for +dL5 fluor ex (nm): main value
[7] = test system: HEK cells transfected to express FAP
Experimental: Dead/Live cell viability assay: 400 nM dye (MG/MG-2I) was pre-complex with cells for 30 mins. After illumination, the buffer was replaced with 2 μM calcein AM and 4 μM EthD-1 working solution. After 30 min incubation at room temperature, the two-color fluorescence cell viability test was conducted with the cells.
Cell killing experiment and cell death count: MG/MG2I was added to the cells 30 minutes before illumination (for A431 and SKBR3 cells, affibody conjugated FAP was added 1 hour prior to illumination). Microscope and light box are used as illumination source, different light dose are achieved by changing of light intensity or illumination time. For death cell counting, the medium was replaced with PBS containing 1 uM propidium iodide and 8 uM Hoechst right after illumination. After 30 min incubation, cells were counted and the death cell ratio is determined by the ratio of PI to Hoechst.
The light induced cytotoxicity of two-component FAP photosensitizer on HEK cells, which were transfected to express FAP on cell surface, was tested. 400 nM MG2I/MG was added to the cell medium 30 minutes prior to illumination; 1 minute of continuous red light illumination from a confocal microscope was applied to cells (40× objective, 640 nm excitation, 0.76 W/cm^2).
The cause of MG2I-dL5 induced cell cytotoxicity was further delineated by adding different ROS quenchers to the solutions.

[8] = test system: cell surface EGFR (A431 cells); experiment: Cell surface EGFR labeling by ZEGFR:1907 fusion probes on A431 cells; assay type: binding, human
Experimental: The labeling of cell surface EGFR by ZEGFR:1907 fusion probes was tested with A431 cells, a cell line that expressed EGFR at high levels, ˜2000000/cell. […] By equilibrium binding fluorescence, the cell surface dissociation constant was estimated to be 122±16 nM for AF, 101±17 nM for FA and 37±6 nM for AFA.

[9] = Recombinant ZEGFR:1907/FAPdL5** probes binding to malachite green; settings: for Kd / kon (*10^6M^−1S^−1): binding to malachite green; for Em (nm) / Ex (nm): probe with MG
Experimental: N and C-terminal fusions were evaluated, as well as a single FAP flanked by two affibodies for their properties to bind and activate MG-fluorogens as well as their binding to target receptors on cultured cells.
Characterization of recombinant probes affibody ZEGFR:1907 (A) and FAPdL5** (F) binding to malachite green.

[10] = standard for 1O2 generation; cited from earlier work
[11] = test system: wild-type HEK cells; assay type: cell-based
Experimental: (§2) FAP-conjugated HER1 affibody was used to target EGFR over-expressing tumor cells A431 in cell cultures mixed with wild-type HEK cells. 250 nM affiFAP was first added to label A431 cells, followed by 250 nM MG2I/MG. […] It is shown that the tumor cells need to be targeted first by the HER1-dL5 affibody, and become accessible to photosentisization only after MG2I is added and bound to the affiFAP. […] Thus, by controlling the specific generation of singlet oxygen on the tumor site, we can eliminate the nonspecific damage to normal cells. […] This improvement to the current state-of-the-art photodynamic therapy will be of great utility, for example with the methods and modularity described herein.

[12] = test system: cells; experiment: Toxicity of free MG2I to cells; assay type: cell-based
[13] = test system: EGFR over-expressing tumor cells A431; experiment: Selective cancer cell killing, A431 mixed with wild-type HEK; assay type: cell-based; settings: 250 nM affiFAP (FAP-conjugated HER1 affibody) then 250 nM dye
Experimental: AffiFAP/FAP was added first and allow cell targeting for 30 minutes, MG2I/MG-ester was then added and incubated for another 30 minutes (No washing is needed in the process). After 1 min illumination (60× objective, 2.43 W/cm^2), Dead/Live working solution was used to replace the cell culture medium. Two-color viability fluorescence assay was performed after 1 hr staining
as §2

[14] = test system: SKBR3 cancer cells; experiment: Selective killing of SKBR3 cancer cells; assay type: cell-based; settings: 100 nM HER2 conjugated dL5 then 100 nM MG2I
Experimental: 100 nM HER2 conjugated dL5 was first added to the cells following by 100 nM MG2I.
as §2

[15] = transgenic Tg(my17: FAP-mCer3), 48 hpf, 12 minutes 659 nm 242 mW/cm^2

With CCOC(=O)CCCOc1ccc(C(=C2C=CC(=[N+](C)C)C=C2)c2ccc(N(C)C)cc2)cc1 [MG, reference compound] the “x band abs max (nm)” value [1] was 606 nm, the “y band abs max (nm)” value [1] was 466 nm and the “λAbs (nm) (Fluorogen)” value [1] was 606 nm. The “ε (10^4 M^−1cm^−1)” value [1] was 10.3(9.18) 10^4 M^−1cm^−1, the ΦF [2] was 0.123 and the Kd [3] was 5 pM. The “heart function immediately after illumination” value (“heart function immediately” for short) [4, 15] was “normal”, the ΦΔ [5] was <0.005 and the “λem (nm)” value [6] was 668 nm. For the same molecule, the “λex (nm)” value [6] was 633 nm, the “+dL5 fluor em (nm)” value ([6]; bound to dL5) was 668 nm and the “+dL5 fluor ex (nm)” value ([6]; bound to dL5) was 636 nm. For the same molecule, the “+dL5 fluor ex (nm), value in parentheses” value ([6]; bound to dL5, second (minor) excitation peak printed in parentheses) was 482 nm.

For [N-]=[N+]=[N-] [sodium azide, reference compound], the “inhibition of MG2I-dL5 induced cytotoxicity by ROS quencher” value ([7]; concentrations higher than 10 mM) was “totally inhibited”.

In the case of “AF: fusion of affibody ZEGFR:1907 (A) and FAPdL5** (F)”, the “cell surface labeling, live-cell imaging” value [8] is reported as “clear cell surface labeling”, the Kd [9] is reported as 430 ± 120 pM and the “kon (*10^6M^−1S^−1)” value [9] is reported as 1.05 *10^6M^−1S^−1. The emission peak ([9]; in the presence of MG) was 664 nm, the major excitation peak ([9]; in the presence of MG) was 636 nm and the minor excitation peak ([9]; in the presence of MG) was 480 nm. The “Em (nm)” value [9] was 664 nm and the “Ex (nm)” value [9] was 634 nm.

In the case of “AFA: single FAPdL5** flanked by two ZEGFR:1907 affibodies”, the “cell surface labeling, live-cell imaging” value [8] is reported as “clear cell surface labeling”, the Kd [9] is reported as 530 ± 110 pM and the “kon (*10^6M^−1S^−1)” value [9] is reported as 1.02 *10^6M^−1S^−1. For the same molecule, the emission peak ([9]; in the presence of MG) was 664 nm, the “fluorescence intensity compared to F and AF” value ([9]; in the presence of MG) was “enhanced fluorescence intensity” and the major excitation peak ([9]; in the presence of MG) was 636 nm. The minor excitation peak ([9]; in the presence of MG) was 480 nm, the “Em (nm)” value [9] was 666 nm and the “Ex (nm)” value [9] was 634 nm.

In the case of “Aluminum phthalocyanine tetrasulfonate [AlPcS4]”, the ψΔ of standard [10] is given as 0.34.

In the case of “Methylium, bis[4-(dimethylamino)phenyl](4-(3-carboethoxypropyl)-3,5-diiodo-phenyl)-chloride [MG2I]”, the light induced cytotoxicity [11] is reported as “no observed light-induced cytotoxicity”, the “x band abs max (nm)” value [1] is reported as 628 nm and the “y band abs max (nm)” value [1] is reported as 440 nm. The “λAbs (nm) (Fluorogen)” value [1] was 628 nm, the “bathochromic shift of the x band relative to free MG” value ([1]; iodination effect) was 22 nm and the “ε (10^4 M^−1cm^−1)” value [1] was 10.1(9.02) 10^4 M^−1cm^−1. The ΦF [2] was 0.037, the toxicity to cells [12] was “no toxicity to cells” and the Kd [3] was 73 pM. The “heart function immediately” value [4, 15] was “no sign of heart beat or blood circulation”, the “heart function immediately” value ([4]; wild-type zebrafish, 12 minutes 659 nm) was “normal” and the ΦΔ [5] was 0.13. For the same molecule, the “λem (nm)” value [6] was 693 nm, the “λex (nm)” value [6] was 666 nm and the “+dL5 fluor em (nm)” value ([6]; bound to dL5) was 693 nm. The “+dL5 fluor ex (nm)” value ([6]; bound to dL5) was 666 nm, the “killing of A431 cells upon illumination” value [13] was “only the EGFR1-expressing tumor cells were killed” and the “killing of SKBR3 cells” value [14] was “selective killing”.

In the case of “affibody: affibody ZEGFR:1907 alone (SEQ ID NO: 18)”, the “fluorescence activation or fluorogen binding by affibody alone” value [9] is reported as “No detectable fluorescence activation or fluorogen binding”.

B1: catalase: ROS quencher enzyme (protein, UniProt P00432 2-527, looked up)
Catalase: ADNRDPASDQMKHWKEQRAAQKPDVLTTGGGNPVGDKLNSLTVGPRGPLLVQDVVFTDEMAHFDRERIPERVVHAKGAGAFGYFEVTHDITRYSKAKVFEHIGKRTPIAVRFSTVAGESGSADTVRDPRGFAVKFYTEDGNWDLVGNNTPIFFIRDALLFPSFIHSQKRNPQTHLKDPDMVWDFWSLRPESLHQVSFLFSDRGIPDGHRHMNGYGSHTFKLVNANGEAVYCKFHYKTDQGIKNLSVEDAARLAHEDPDYGLRDLFNAIATGNYPSWTLYIQVMTFSEAEIFPFNPFDLTKVWPHGDYPLIPVGKLVLNRNPVNYFAEVEQLAFDPSNMPPGIEPSPDKMLQGRLFAYPDTHRHRLGPNYLQIPVNCPYRARVANYQRDGPMCMMDNQGGAPNYYPNSFSAPEHQPSALEHRTHFSGDVQRFNSANDDNVTQVRTFYLKVLNEEQRKRLCENIAGHLKDAQLFIQKKAVKNFSDVHPEYGSRIQALLDKYNEEKPKNAVHTYVQHGSHLSAREKANL
modifications: PEG
In the case of B1, the “inhibition of MG2I-dL5 induced cytotoxicity by ROS quencher” value ([7]; up to 1000 U/mL) is reported as “very little effect in rescuing cell death”.
